The source of these data is patent publication US20260000698A1 (priority 2022, published 2026).

Marks after values point to notes of the source that are not given here.

Data set [1] can be described thus: Parallel artificial membrane permeability assay (PAMPA). The data set is classed as in vitro ADME. The protocol: Parallel artificial membrane permeability assay (PAMPA).^5 The membrane permeability of selected compounds was evaluated using the Corning® BioCoat™ Pre-coated PAMPA Plate System (Corning 353015; Glendale, AZ, USA). The pre-coated plate assembly, which was stored at −20° C., was taken to thaw for 30 min at room temperature. The permeability assay was carried out in accordance with the manufacturer's protocol. Briefly, the 96-well filter plate, pre-coated with lipids, was used as the permeation acceptor and a matching 96 well receiver plate was used as the permeation donor. Compound solutions were prepared by diluting the 10 mmol/L DMSO stock solutions with 10% methanol in DPBS to a final concentration of […]. The compound solutions were added to the wells (300 μL/well) of the receiver plate and DPBS with 10% methanol was added to the wells (200 μL/well) of the pre-coated filter plate. The filter plate was then coupled with the receiver plate and the plate assembly was incubated at 25° C. without agitation for 5 h. At the end of the incubation, the plate was separated and the final concentrations of compounds in both donor wells and acceptor wells were analyzed using LC-MS/MS. Permeability of a compound was calculated using the Eq. (1):
where A=filter area (0.3 cm^2), VD=donor well volume (0.3 mL), VA=acceptor well volume (0.2 mL), t=incubation time (seconds), CA(t)=compound concentration in acceptor well at time t, CD(t)=compound concentration in donor well at time t, and Ceq was calculated using the Eq. (2): […]
A cutoff criterion of Pe value at […] was used to classify the compounds into high and low permeability according to the literature report of this PAMPA plate system^1.

The target in another data set is T1, DOT1L (Homo sapiens, UniProt Q8TEK3).
T1 construct: purchased BPS Bioscience
In words: Human MTase screening: DOT1L. The data set is classed as biochemical. How it is done:
(§1) Assay conditions. The human methyltransferase inhibition assays were performed at BPS Bioscience (San Diego, CA, USA). All of the enzymatic reactions were conducted in duplicate at room temperature for 60-960 min in a 50 μL mixture containing proper methyltransferase assay buffer, S-adenosylmethionine (SAM), enzyme, and the test compound. These 50 μL reactions were carried out in wells of a substrate pre-coated plate. First, enzyme and inhibitor were added to assay wells and preincubated for 30 min at room temperature, then SAM was added to start the reaction. Final DMSO concentration was 1% in all reactions.
(§2) After enzymatic reactions, the reaction mixtures were discarded and each of the wells was washed three times with TBST buffer, and slowly shaken with Blocking Buffer for 10 min. Wells were emptied, and 100 μL of diluted primary antibody was added. The plate was then slowly shaken for 60 minutes at room temperature. […] Immediately, the luminescence of the samples was measured in a BioTek Synergy™ 2 (Winooski, VT, USA) microplate reader using Gen5 software.
(§3) Data analysis. […] The luminescence data/alpha counts were analyzed and compared. […] The percent activity in the presence of each compound was calculated according to the following equation: % activity=(C−C0)/(Ce−C0), where C=the luminescence/alpha counts in the presence of the compound.

Assay in data set [2]: not given
The source holds these as a separate data set.

In a further data set the target is T2, DNMT3A/DNMT3L (Homo sapiens, UniProt Q9Y6K1).
T2 construct: purchased BPS Bioscience
In words: Human MTase screening: DNMT3A/DNMT3L. The data set is classed as biochemical. The protocol:
as §1, §2, §3

Data set [3] is described as follows: Plasma stability assay, mouse plasma. It is filed as in vitro ADME, mouse (CD-1). The protocol: (§4) Plasma stability assay. The plasma stability assay was performed in triplicate by incubating each selected compound (1 μmol/L final concentration) in normal mouse (CD-1) or human plasma (Innovative Research; Novi, MI, USA) diluted to 80% with 0.1 mol/L potassium phosphate buffer (pH 7.4) at 37° C. At 0, 1, 3, 6, and 24 h, a 50 μL aliquot of the plasma mixture was taken and quenched with 150 μL of acetonitrile containing 0.1% formic acid. The samples were then vortexed and centrifuged at 15,000 rpm (Eppendorf centrifuge 5424R; Enfield, CT, USA) for 5 min. The supernatants were collected and analyzed by LC-MS/MS to determine the in vitro plasma half-life (t1/2).

Data set [4] in a line: Plasma stability assay, human plasma. It is filed as in vitro ADME. How it is done: as §4
The subject of data set [5] is SARS-CoV-2 isolate USA-WA1/2020. Particulars: inhibition at 50 μM.
The target of another data set is T3, DNMT1 (Homo sapiens, UniProt P26358).
T3 construct: purchased BPS Bioscience
In words: Human MTase screening: DNMT1. The data set is classed as biochemical. How it is done: as §1, §2, §3

The target of another data set is T4, MLL1 Complex (Homo sapiens, UniProt Q03164).
T4 construct: purchased BPS Bioscience
In words: Human MTase screening: MLL1 Complex. The data set is classed as biochemical. The protocol:
as §1, §2, §3

The next data set concerns panel of 10 human MTases. In words: Human MTase screening, whole panel. The data set is classed as biochemical. Particulars: 10 μM. How it is done:
To evaluate selectivity over human MTases, compound 3 was screened against a panel of 10 human MTases including histone lysine, protein arginine, DNA and RNA MTases. […] These preliminary results bolstered our premise that it was feasible to design selective Nsp14 MTase because of its unique structure in contrast to the canonical Rossmann fold.
Assay conditions. The human methyltransferase inhibition assays were performed at BPS Bioscience (San Diego, CA, USA). All of the enzymatic reactions were conducted in duplicate at room temperature for 60-960 min in a 50 μL mixture containing proper methyltransferase assay buffer, S-adenosylmethionine (SAM), enzyme, and the test compound. These 50 μL reactions were carried out in wells of a substrate pre-coated plate. […]
After enzymatic reactions, the reaction mixtures were discarded and each of the wells was washed three times with TBST buffer, and slowly shaken with Blocking Buffer for 10 min. […] Immediately, the luminescence of the samples was measured in a BioTek Synergy™ 2 (Winooski, VT, USA) microplate reader using Gen5 software.
as §3

T4 sequence (Q15291 whole entry): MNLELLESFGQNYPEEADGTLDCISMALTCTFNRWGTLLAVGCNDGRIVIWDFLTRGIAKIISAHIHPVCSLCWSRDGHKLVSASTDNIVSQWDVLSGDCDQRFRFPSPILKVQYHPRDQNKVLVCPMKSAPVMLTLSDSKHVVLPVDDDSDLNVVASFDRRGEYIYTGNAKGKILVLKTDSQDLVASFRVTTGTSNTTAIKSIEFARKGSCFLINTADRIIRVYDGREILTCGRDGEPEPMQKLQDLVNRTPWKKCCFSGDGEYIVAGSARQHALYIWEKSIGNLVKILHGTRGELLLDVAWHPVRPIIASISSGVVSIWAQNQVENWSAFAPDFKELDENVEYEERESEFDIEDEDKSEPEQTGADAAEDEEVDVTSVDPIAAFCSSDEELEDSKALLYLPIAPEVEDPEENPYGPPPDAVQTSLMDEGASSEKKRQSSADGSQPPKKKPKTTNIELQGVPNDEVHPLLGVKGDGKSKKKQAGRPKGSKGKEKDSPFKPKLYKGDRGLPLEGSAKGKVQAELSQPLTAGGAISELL
T4 sequence (Q9C005 whole entry, further chain): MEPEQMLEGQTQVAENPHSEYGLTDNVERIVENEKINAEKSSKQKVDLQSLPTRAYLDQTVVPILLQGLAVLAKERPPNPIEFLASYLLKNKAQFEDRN
T4 sequence (Q9UBL3 whole entry, further chain): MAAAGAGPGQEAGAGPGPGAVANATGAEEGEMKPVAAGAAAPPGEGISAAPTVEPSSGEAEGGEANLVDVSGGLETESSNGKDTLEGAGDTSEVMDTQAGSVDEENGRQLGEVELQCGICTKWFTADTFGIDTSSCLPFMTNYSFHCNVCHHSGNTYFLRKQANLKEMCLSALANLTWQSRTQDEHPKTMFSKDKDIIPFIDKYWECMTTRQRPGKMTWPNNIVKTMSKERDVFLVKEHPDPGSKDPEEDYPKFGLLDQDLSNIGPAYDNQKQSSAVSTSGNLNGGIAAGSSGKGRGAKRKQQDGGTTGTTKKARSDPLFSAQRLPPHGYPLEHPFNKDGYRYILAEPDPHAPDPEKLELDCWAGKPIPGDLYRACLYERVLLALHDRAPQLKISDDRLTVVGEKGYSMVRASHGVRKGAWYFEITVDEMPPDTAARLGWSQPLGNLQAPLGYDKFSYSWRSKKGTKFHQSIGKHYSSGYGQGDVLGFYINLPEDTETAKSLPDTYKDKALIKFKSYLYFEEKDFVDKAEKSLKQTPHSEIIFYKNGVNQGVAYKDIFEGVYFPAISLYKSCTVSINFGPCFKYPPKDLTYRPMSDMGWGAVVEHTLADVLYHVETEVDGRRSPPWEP
T4 sequence (Q03164 3745-3969): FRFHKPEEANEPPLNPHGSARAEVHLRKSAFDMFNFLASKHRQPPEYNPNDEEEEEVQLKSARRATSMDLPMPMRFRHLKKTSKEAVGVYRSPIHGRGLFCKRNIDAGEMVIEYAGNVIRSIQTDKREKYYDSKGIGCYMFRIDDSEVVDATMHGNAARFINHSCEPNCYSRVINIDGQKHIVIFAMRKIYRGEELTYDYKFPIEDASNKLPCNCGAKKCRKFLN
T3 sequence (P26358 whole entry): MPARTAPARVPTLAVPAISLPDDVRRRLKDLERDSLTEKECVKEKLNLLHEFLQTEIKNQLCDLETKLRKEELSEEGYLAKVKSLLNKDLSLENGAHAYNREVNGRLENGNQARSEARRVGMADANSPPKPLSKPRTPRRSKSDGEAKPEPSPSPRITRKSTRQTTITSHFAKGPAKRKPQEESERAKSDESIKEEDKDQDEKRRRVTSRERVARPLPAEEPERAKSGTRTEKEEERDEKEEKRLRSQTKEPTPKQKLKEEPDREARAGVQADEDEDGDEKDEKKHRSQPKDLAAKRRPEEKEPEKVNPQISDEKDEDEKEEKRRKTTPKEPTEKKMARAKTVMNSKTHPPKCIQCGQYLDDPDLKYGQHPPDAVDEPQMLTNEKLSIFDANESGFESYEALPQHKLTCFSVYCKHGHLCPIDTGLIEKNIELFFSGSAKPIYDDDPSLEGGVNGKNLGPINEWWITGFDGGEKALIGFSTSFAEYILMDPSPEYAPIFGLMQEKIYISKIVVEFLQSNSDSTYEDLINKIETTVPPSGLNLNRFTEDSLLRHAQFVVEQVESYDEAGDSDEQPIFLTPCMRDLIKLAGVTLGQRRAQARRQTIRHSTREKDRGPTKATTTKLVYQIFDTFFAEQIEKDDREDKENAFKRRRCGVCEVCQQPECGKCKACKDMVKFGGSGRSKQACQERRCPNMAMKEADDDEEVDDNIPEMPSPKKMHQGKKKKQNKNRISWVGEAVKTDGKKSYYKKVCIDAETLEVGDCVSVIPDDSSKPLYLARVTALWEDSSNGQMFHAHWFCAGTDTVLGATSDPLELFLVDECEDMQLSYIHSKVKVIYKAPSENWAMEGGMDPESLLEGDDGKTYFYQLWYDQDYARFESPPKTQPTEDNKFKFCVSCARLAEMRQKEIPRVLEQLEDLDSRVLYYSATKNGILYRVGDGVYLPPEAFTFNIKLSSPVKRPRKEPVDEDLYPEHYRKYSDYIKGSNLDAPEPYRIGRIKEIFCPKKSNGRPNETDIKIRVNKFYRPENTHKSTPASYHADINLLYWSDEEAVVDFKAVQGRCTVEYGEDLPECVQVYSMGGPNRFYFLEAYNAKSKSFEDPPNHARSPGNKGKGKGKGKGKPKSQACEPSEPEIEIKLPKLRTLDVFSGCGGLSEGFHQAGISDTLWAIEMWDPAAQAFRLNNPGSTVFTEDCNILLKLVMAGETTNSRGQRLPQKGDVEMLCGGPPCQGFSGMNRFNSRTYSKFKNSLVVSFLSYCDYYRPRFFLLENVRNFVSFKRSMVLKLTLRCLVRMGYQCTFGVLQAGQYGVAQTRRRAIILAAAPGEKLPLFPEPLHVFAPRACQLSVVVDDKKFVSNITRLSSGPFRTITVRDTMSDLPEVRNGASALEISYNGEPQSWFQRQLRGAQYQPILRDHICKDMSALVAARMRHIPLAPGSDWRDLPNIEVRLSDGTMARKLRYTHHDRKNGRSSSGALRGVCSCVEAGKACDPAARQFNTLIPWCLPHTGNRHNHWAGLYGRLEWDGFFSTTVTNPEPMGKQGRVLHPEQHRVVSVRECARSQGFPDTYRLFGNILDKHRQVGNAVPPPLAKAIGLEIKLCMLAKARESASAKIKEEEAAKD
T1 sequence (Q8TEK3 whole entry): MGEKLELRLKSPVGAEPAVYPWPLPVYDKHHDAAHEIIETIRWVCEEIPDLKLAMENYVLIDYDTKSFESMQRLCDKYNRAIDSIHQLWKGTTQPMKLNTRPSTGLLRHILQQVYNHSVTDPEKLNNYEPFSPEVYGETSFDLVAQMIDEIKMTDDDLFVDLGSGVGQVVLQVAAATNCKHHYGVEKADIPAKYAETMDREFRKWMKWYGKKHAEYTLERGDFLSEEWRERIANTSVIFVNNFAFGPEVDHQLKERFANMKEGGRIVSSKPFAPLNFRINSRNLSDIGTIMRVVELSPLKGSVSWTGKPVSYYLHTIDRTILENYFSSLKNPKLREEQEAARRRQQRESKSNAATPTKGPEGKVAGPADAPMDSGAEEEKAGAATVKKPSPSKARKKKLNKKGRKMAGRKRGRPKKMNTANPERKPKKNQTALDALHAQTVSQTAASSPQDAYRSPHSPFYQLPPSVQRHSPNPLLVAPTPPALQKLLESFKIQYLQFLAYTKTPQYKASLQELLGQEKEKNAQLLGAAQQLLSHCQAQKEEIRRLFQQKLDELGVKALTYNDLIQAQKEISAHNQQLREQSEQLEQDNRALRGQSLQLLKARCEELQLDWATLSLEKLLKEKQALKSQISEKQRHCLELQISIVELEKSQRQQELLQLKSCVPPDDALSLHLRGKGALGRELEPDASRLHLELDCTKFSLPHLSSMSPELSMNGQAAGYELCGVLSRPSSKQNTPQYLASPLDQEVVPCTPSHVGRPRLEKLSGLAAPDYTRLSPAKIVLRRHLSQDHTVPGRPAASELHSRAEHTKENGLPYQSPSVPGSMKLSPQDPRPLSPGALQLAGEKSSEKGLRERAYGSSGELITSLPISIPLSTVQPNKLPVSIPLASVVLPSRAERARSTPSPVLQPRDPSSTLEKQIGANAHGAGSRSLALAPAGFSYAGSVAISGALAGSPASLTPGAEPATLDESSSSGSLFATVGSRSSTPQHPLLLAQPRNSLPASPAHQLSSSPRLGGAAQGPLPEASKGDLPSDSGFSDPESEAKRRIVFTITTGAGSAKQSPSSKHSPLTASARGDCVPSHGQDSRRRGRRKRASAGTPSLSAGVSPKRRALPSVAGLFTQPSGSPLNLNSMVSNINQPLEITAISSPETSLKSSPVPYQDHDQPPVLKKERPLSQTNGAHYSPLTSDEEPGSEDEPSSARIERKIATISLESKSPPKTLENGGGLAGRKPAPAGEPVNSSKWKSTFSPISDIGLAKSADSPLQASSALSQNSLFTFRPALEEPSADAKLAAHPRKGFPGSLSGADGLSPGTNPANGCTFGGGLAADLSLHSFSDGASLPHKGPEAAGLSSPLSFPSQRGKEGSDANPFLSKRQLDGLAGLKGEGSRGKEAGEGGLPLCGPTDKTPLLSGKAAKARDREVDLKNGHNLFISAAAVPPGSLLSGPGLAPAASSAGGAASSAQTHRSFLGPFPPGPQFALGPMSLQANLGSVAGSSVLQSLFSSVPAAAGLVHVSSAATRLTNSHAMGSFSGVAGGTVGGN

`Nc1ncnc2c1ncn2[C@@H]1O[C@H](CNS(=O)(=O)c2ccc3ccccc3c2)[C@@H](O)[C@H]1O` [Compound 3, N-(((2R,3S,4R,5R)-5-(6-Amino-9H-purin-9-yl)-3,4-dihydroxytetrahydrofuran-2-yl)methyl)naphthalene-2-sulfonamide]: the “stability in mouse liver S9 fractions” value was “resistant to phase I and II transformations”. In addition, the “passive diffusion rate in PAMPA” value in data set [1] (PAMPA) is on record as “equally low”. Further, the “PAMPA Permeability Pe” value in data set [1] (n = 6, mean±SD, 25° C., 5 h) is 0.2 ± 0.1 10^−6 cm/s. Moreover, the inhibition (usually the change of the read-out against control, counted positive when it falls) at 10 µM at DOT1L stood at 10%. Further, the “stability in human liver S9 fractions” value in data set [2] is “resistant to phase I and II transformations”. For the same compound, at DNMT3A/DNMT3L, the inhibition at 10 µM came to 4%. In addition, the “Plasma Stability t1/2, Mouse” value in data set [3] (mouse plasma, 37° C., n = 3) is given as >24^d h. Besides, in data set [3] (mouse, plasma), the “stability in mouse plasma” value is given as “remarkably stable”. In addition, in [4] (human plasma, 37° C., n = 3), the “Plasma Stability t1/2, Human” value is reported as >24^d h. In addition, in data set [4] (human, plasma), the “stability in human plasma” value is reported as “remarkably stable”. In data set [5], the “EC50: NA (not active)” value is given as “NA^a (NA, not active, <15% inhibition at 50 μM.)”. Moreover, at DNMT1, the inhibition at 10 µM is 5%. Further, the inhibition at 10 µM at MLL1 Complex came out at 1%. Moreover, the “inhibition of a panel of 10 human MTases” value with panel of 10 human MTases is on record as “minimal inhibition”.
